Results: patent publication US12077503B2, “Substituted cyclic amides and their use as herbicides” (FMC CORPORATION, priority 2015, dated 2024)

What was measured:
Type in all cases: in vivo
[1] = system: ryegrass, Italian (Italian ryegrass, Lolium multiflorum); test: Test A postemergence; details: Lolium multiflorum, post-emergence, 240 h, read-out: Plant response rating, Ryegrass, Italian
Outline: (§1)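 Visual injury scores from 0, no effect, to 100, complete control, were assigned versus untreated controls roughly 10 d after treatment in the greenhouse. Test chemicals, formulated with surfactant in a non-phytotoxic solvent, were applied to planted seeds as a preemergence soil spray or postemergence to one- to two-leaf plants 2 to 10 cm tall, in loam–sand soil.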

[2] = system: barnyardgrass (Echinochloa crus-galli); test: Test A postemergence; details: Echinochloa crus-galli, post-emergence, 240 h, read-out: Plant response rating, Barnyardgrass
Outline: as §1

[3] = system: Galium (catchweed bedstraw, Galium aparine); test: Test A postemergence; details: Galium, post-emergence, 240 h, read-out: Plant response rating, Galium
Outline: as §1

Kochia (Kochia scoparia) [4] = test: Test A postemergence; details: Bassia scoparia, post-emergence, 240 h, read-out: Plant response rating, Kochia
Outline: as §1

[5] = system: blackgrass (Alopecurus myosuroides); test: Test A postemergence; details: Alopecurus myosuroides, post-emergence, 240 h, read-out: Plant response rating, Blackgrass
Outline: as §1

[6] = system: pigweed (Amaranthus retroflexus); test: Test A postemergence; details: Amaranthus retroflexus, post-emergence, 240 h, read-out: Plant response rating, Pigweed
Outline: as §1

[7] = system: wheat (Triticum aestivum); test: Test A postemergence; details: Triticum aestivum, post-emergence, 240 h, read-out: Plant response rating, Wheat
Outline: as §1

[8] = system: ragweed (common ragweed, Ambrosia elatior); test: Test A postemergence; details: Ambrosia artemisiifolia, post-emergence, 240 h, read-out: Plant response rating, Ragweed
Outline: as §1

corn (Zea mays) = test: Test A postemergence; details: Zea mays, post-emergence, 240 h
Outline: as §1

[9] = system: giant foxtail (Setaria faberii); test: Test A postemergence; details: Setaria faberi, post-emergence, 240 h, read-out: Plant response rating, Foxtail, Giant
Outline: as §1

[10] = system: ryegrass, Italian (Italian ryegrass, Lolium multiflorum); test: Test A preemergence; details: Lolium multiflorum, pre-emergence, 240 h
Outline: as §1

[11] = system: barnyardgrass (Echinochloa crus-galli); test: Test A preemergence; details: Echinochloa crus-galli, pre-emergence, 240 h
Outline: as §1

Kochia (Kochia scoparia) [12] = test: Test A preemergence; details: Bassia scoparia, pre-emergence, 240 h
Outline: as §1

[13] = system: pigweed (Amaranthus retroflexus); test: Test A preemergence; details: Amaranthus retroflexus, pre-emergence, 240 h
[14] = system: ragweed (common ragweed, Ambrosia elatior); test: Test A preemergence; details: Ambrosia artemisiifolia, pre-emergence, 240 h
Outline: as §1

[15] = 125 g ai/ha, Postemergence, visual injury after approximately 10 d, 0 to 100 scale where 0 is no effect and 100 is complete control
[16] = 500 g ai/ha, postemergence, visual injury, 0 to 100 scale (0 no effect, 100 complete control), approx. 10 d

**Q.** For `Cc1cc([C@H]2CN(C)C(=O)[C@@H]2C(=O)Nc2cccc(F)c2F)cc(C)c1Br` [Compound 1024], which pest or weed control at 125 g/ha [1, 15] is on record?
**A.** Its pest or weed control at 125 g/ha is 30%.

**Q.** And the pest or weed control at 500 g/ha [1, 16]?
**A.** The pest or weed control at 500 g/ha was 30%.

**Q.** And the pest or weed control at 125 g/ha [2, 15]?
**A.** The pest or weed control at 125 g/ha was 90%.

**Q.** What about the pest or weed control at 500 g/ha [2, 16] of the same molecule?
**A.** Its pest or weed control at 500 g/ha is 90%.

**Q.** What about the pest or weed control at 125 g/ha [3, 15] of the same molecule?
**A.** Its pest or weed control at 125 g/ha is 60%.

**Q.** What about the pest or weed control at 500 g/ha [3, 16] of the same molecule?
**A.** The pest or weed control at 500 g/ha was 60%.

**Q.** And the pest or weed control at 125 g/ha (Kochia (Kochia scoparia) [4]; [15])?
**A.** Its pest or weed control at 125 g/ha is 50%.

**Q.** And the pest or weed control at 500 g/ha (Kochia (Kochia scoparia) [4]; [16])?
**A.** The pest or weed control at 500 g/ha was 60%.

**Q.** What about the pest or weed control at 125 g/ha [5, 15] of the same molecule?
**A.** Its pest or weed control at 125 g/ha is 0%.

**Q.** What about the pest or weed control at 500 g/ha [5, 16] of the same molecule?
**A.** Its pest or weed control at 500 g/ha is 20%.

**Q.** What about the pest or weed control at 125 g/ha [6, 15] of the same molecule?
**A.** The pest or weed control at 125 g/ha was 30%.

**Q.** What about the pest or weed control at 500 g/ha [6, 16] of the same molecule?
**A.** Its pest or weed control at 500 g/ha is 50%.

**Q.** And the plant injury at 125 g/ha [7, 15]?
**A.** Its plant injury at 125 g/ha is 0%.

**Q.** What about the plant injury at 500 g/ha [7, 16] of the same molecule?
**A.** Its plant injury at 500 g/ha is 30%.

**Q.** What about the pest or weed control at 125 g/ha [8, 15] of the same molecule?
**A.** The pest or weed control at 125 g/ha was 0%.

**Q.** What about the pest or weed control at 500 g/ha [8, 16] of the same molecule?
**A.** Its pest or weed control at 500 g/ha is 0%.

**Q.** What about the Corn plant response rating (crop injury, 0 = no effect, 100 = complete kill) at 125 g/ha (corn (Zea mays); [15]) of the same molecule?
**A.** The Corn plant response rating (crop injury, 0 = no effect, 100 = complete kill) at 125 g/ha was 70%.

**Q.** And the Corn plant response rating (crop injury, 0 = no effect, 100 = complete kill) at 500 g/ha (corn (Zea mays); [16])?
**A.** The Corn plant response rating (crop injury, 0 = no effect, 100 = complete kill) at 500 g/ha was 70%.

**Q.** And the pest or weed control at 125 g/ha [9, 15]?
**A.** Its pest or weed control at 125 g/ha is 70%.

**Q.** And the pest or weed control at 500 g/ha [9, 16]?
**A.** Its pest or weed control at 500 g/ha is 90%.

**Q.** What about the pest or weed control at 125 g/ha ([10]; 125 g ai/ha, Preemergence, visual injury rating after approximately 10 d, read-out: Ryegrass, Italian plant response rating (0 to 100 scale, 0 is no effect, 100 is complete control)) of the same molecule?
**A.** Its pest or weed control at 125 g/ha is 0%.

**Q.** And the pest or weed control at 500 g/ha ([10]; 500 g ai/ha, preemergence, visual injury rating about 10 d after treatment, 0 to 100 scale (0 no effect, 100 complete control), read-out: Ryegrass, Italian plant response rating)?
**A.** The pest or weed control at 500 g/ha was 90%.

**Q.** And the pest or weed control at 125 g/ha ([11]; 125 g ai/ha, Preemergence, visual injury rating after approximately 10 d, read-out: Barnyardgrass plant response rating (0 to 100 scale, 0 is no effect, 100 is complete control))?
**A.** The pest or weed control at 125 g/ha was 70%.

**Q.** What about the pest or weed control at 500 g/ha ([11]; 500 g ai/ha, preemergence, visual injury rating about 10 d after treatment, 0 to 100 scale (0 no effect, 100 complete control), read-out: Barnyardgrass plant response rating) of the same molecule?
**A.** Its pest or weed control at 500 g/ha is 90%.

**Q.** And the pest or weed control at 125 g/ha (Kochia (Kochia scoparia) [12]; 125 g ai/ha, Preemergence, visual injury rating after approximately 10 d, read-out: Kochia plant response rating (0 to 100 scale, 0 is no effect, 100 is complete control))?
**A.** Its pest or weed control at 125 g/ha is 30%.

**Q.** What about the pest or weed control at 500 g/ha (Kochia (Kochia scoparia) [12]; 500 g ai/ha, preemergence, visual injury rating about 10 d after treatment, 0 to 100 scale (0 no effect, 100 complete control), read-out: Kochia plant response rating) of the same molecule?
**A.** Its pest or weed control at 500 g/ha is 40%.

**Q.** And the pest or weed control at 125 g/ha ([13]; 125 g ai/ha, Preemergence, visual injury rating after approximately 10 d, read-out: Pigweed plant response rating (0 to 100 scale, 0 is no effect, 100 is complete control))?
**A.** The pest or weed control at 125 g/ha was 30%.

**Q.** What about the pest or weed control at 500 g/ha ([13]; 500 g ai/ha, preemergence, visual injury rating about 10 d after treatment, 0 to 100 scale (0 no effect, 100 complete control), read-out: Pigweed plant response rating) of the same molecule?
**A.** The pest or weed control at 500 g/ha was 50%.

**Q.** And the pest or weed control at 125 g/ha ([14]; 125 g ai/ha, Preemergence, visual injury rating after approximately 10 d, read-out: Ragweed plant response rating (0 to 100 scale, 0 is no effect, 100 is complete control))?
**A.** The pest or weed control at 125 g/ha was 0%.

**Q.** And the pest or weed control at 500 g/ha ([14]; 500 g ai/ha, preemergence, visual injury rating about 10 d after treatment, 0 to 100 scale (0 no effect, 100 complete control), read-out: Ragweed plant response rating)?
**A.** Its pest or weed control at 500 g/ha is 30%.
